{"source": "paper PMC8587849", "about": "“Antimicrobial and Anticancer Application of Silver(I) Dipeptide Complexes” (Molecules, 2021)", "key": {"[1]": {"tested_on": "Microsporum gypseum CCM F-8342", "assay": "Antifungal activity (filamentous fungi), macrodilution on solidified PDA", "format": "cell-based", "conditions": "M.gypseum; read-out: IC50 and MIC100 (class symbol)", "experimental": "(§4) Cultures of bacteria (in Mueller-Hinton broth, MHB) and yeasts (in Sabouraud’s growth medium, SB) were incubated under shaking (250 rpm) at 37 °C. The growth of bacteria and yeasts was evaluated by measuring the absorbance of the growing cultures (A550) until the cultures reached the stationary growth phase. […] During culturing, the diameters of growing fungal colonies were measured at regular intervals [71, 72]. […] The final concentration of DMSO never exceeded 1.0 vol. % in the control or treated samples. […] The IC50 and MIC90 with respect to MIC80 values were evaluated from toxicity curves."}, "[2]": {"tested_on": "Candida albicans SC 5314", "assay": "Antifungal activity (yeast), macrodilution method", "format": "cell-based", "conditions": "C. albicans", "experimental": "as §4"}, "[3]": {"tested_on": "Staphylococcus epidermidis CCM 7221", "assay": "Antibacterial activity, macrodilution method", "format": "cell-based", "conditions": "S.epidermidis", "experimental": "(§5) Cultures of bacteria (in Mueller-Hinton broth, MHB) and yeasts (in Sabouraud’s growth medium, SB) were incubated under shaking (250 rpm) at 37 °C. The growth of bacteria and yeasts was evaluated by measuring the absorbance of the growing cultures (A550) until the cultures reached the stationary growth phase. […] The final concentration of DMSO never exceeded 1.0 vol. % in the control or treated samples. […] The IC50 and MIC90 with respect to MIC80 values were evaluated from toxicity curves."}, "[4]": {"tested_on": "S. aureus biofilm", "assay": "Influence on S. aureus biofilm formation, crystal violet staining", "format": "cell-based", "conditions": "for A570 (biofilm, crystal violet): control A570 = 0.47; for I: biofilm intensity: control strong", "experimental": "The biofilm was qualified by the crystal violet staining method. Briefly, overnight cultures of bacteria S.aureus (in MHB) and yeasts C.parapsislosis (in SB) were prepared. The fresh prepared growth media MHB and SB were inoculated with the overnight culture for a final concentration of 5 × 10^6 cells mL^−1. The microbial biofilm was formed in 96-well microplates for adherent cells. […] Prepared cultures were incubated for 2 h at 37 °C. […] The treatment with DMSO (solvent) alone served as a control. The inoculated microplates were incubated at 37 °C for the next 46 h. […] Microplates with mature biofilm were decanted and washed using 200 μL of saline solution. The plate was left for 15 min to dry completely at laboratory temperature. Then, 110 μL of 0.4% crystal violet dye was added to each well, and the plate was incubated for 15 min at laboratory temperature. After the decantation, the plate was washed 3 times with 200 μL of saline solution. Then, 200 μL of 96% ethanol was added. The microplate was left to incubate for 15 min at laboratory temperature. After the transfer of the well content to a clean microplate, the absorbance (570 nm) of released crystal violet (proportionate to biofilm cell density) was measured,, and the values were evaluated as weak biofilm formation A570 <0.1; 0.199>, medium biofilm formation A570 <0.2; 0.3>, strong biofilm formation A570 <0.301; 0.999>, or very strong biofilm formation A570 ≥ 1.00."}, "[5]": {"tested_on": "CT DNA", "assay": "UV-Vis absorption titration with CT DNA", "format": "binding, calf", "conditions": "0.01 M Tris-HCl pH 7.4; complex 7.85 × 10^−5 M", "protocol": "UV–vis spectra were measured in 0.01 M Tris-HCl buffer (pH 7.4) using a Varian Cary 100 Bio spectrophotometer in the range of 230–320 nm and recorded at room temperature (24 °C) using a quartz cuvette of 1 cm path length. The concentration of investigated Ag(I) complexes was 7.85 × 10^−5 M. During the titration, an aliquot of buffered CT DNA solution was added to each cuvette (sample and reference) to eliminate the absorbance of DNA itself. The DNA concentration per nucleotide was determined by absorption spectroscopy using the molar absorption coefficient (6600 M^−1cm^−1) at 260 nm."}, "[6]": {"tested_on": "methicillin-resistant Staphylococcus aureus L12", "assay": "Antibacterial activity, macrodilution method", "format": "cell-based", "experimental": "as §5"}, "[7]": {"tested_on": "CT DNA–HO system", "assay": "Fluorescence competitive binding with Hoechst 33258", "design": "species or system calf", "conditions": "displacement of Hoechst 33258 from CT DNA; 462 nm; 10 mM Tris-HCl pH 7.4", "protocol": "The fluorescence competitive binding studies of silver(I) complexes with Hoechst 33 258 (HO) were performed on a Varian Cary Eclipse spectrophotometer. The emission spectra of DNA–HO were measured in the range of 400–550 nm using an excitation wavelength of 343 nm with a slit width of 5 nm for the excitation and 5 nm for the emission beam. […] Ksv quenching constant was determined according to the classical Stern-Volmer Equation (1) in [63, 75]:F0/F = 1 + KSV [Q](1) where F0 and F are the fluorescence intensities in the absence and the presence of the quencher at 462 nm, KSV is the Stern-Volmer quenching constant and [Q] is the concentration of the quencher."}, "[8]": {"tested_on": "MCF-7", "assay": "MTS antiproliferative assay", "format": "cell-based, human", "conditions": "72 h", "protocol": "(§1) After 72 h of incubation, 10 µL of MTS was added to each well. […] IC50 values were calculated from MTS analyses."}, "[9]": {"tested_on": "HeLa", "assay": "MTS antiproliferative assay", "format": "cell-based, human", "conditions": "72 h", "protocol": "as §1"}, "[10]": {"tested_on": "Escherichia coli (E. coli) CCM 3988", "assay": "Antibacterial activity, macrodilution method", "format": "cell-based", "experimental": "as §5"}, "[11]": {"tested_on": "A.flavus", "assay": "Antifungal activity (filamentous fungi)", "format": "cell-based", "conditions": "read-out: IC50 and MIC100 (class symbol)", "experimental": "as §4"}, "[12]": {"tested_on": "BJ-5ta", "assay": "MTS assay on fibroblasts", "format": "cell-based", "conditions": "BJ-5ta human skin fibroblasts, 72 h", "protocol": "as §1"}, "[13]": {"tested_on": "Alternaria alternata CCM F-128", "assay": "Antifungal activity (filamentous fungi), macrodilution on solidified PDA", "format": "cell-based", "conditions": "A. alternata", "experimental": "as §4"}, "[14]": {"tested_on": "MDA-MB-231", "assay": "MTS antiproliferative assay", "format": "cell-based, human", "conditions": "72 h", "protocol": "(§2) Cells were maintained in standard conditions with an atmosphere containing 5% CO2 at 37 °C.\nas §1"}, "[15]": {"tested_on": "BLM", "assay": "MTS antiproliferative assay", "format": "cell-based, human", "conditions": "BLM; MTS, 72 h", "protocol": "as §2, §1"}, "[16]": {"tested_on": "HCT116", "assay": "MTS antiproliferative assay", "format": "cell-based, human", "conditions": "72 h", "protocol": "as §2, §1"}, "[17]": {"tested_on": "Jurkat", "assay": "MTS antiproliferative assay", "format": "cell-based, human", "conditions": "72 h", "protocol": "as §2, §1"}, "[18]": {"tested_on": "Candida parapsilosis ATCC 22019", "assay": "Antifungal activity (yeast), macrodilution method", "format": "cell-based", "conditions": "C. parapsilosis", "experimental": "as §5"}, "[19]": {"tested_on": "Rhizopus oryzae CCM F-8284", "assay": "Antifungal activity (filamentous fungi), macrodilution on solidified PDA", "format": "cell-based", "experimental": "as §4"}, "[20]": {"tested_on": "Staphylococcus aureus CCM 3953", "assay": "Antibacterial activity, macrodilution method", "format": "cell-based", "conditions": "S. aureus", "experimental": "as §5"}, "[21]": {"tested_on": "MDA-MB-231 cells", "assay": "Cell cycle analysis by flow cytometry", "format": "cell-based, human", "conditions": "72 h, treated with IC50", "protocol": "(§3) Prior to each analysis, cells were washed in PBS, followed by resuspending in staining solution (0.5 mg/mL ribonuclease A, 0.2% final concentration Triton X-100, propidium iodide 0.025 mg/mL in 500 µL PBS) (all Sigma Aldrich), and incubated for 30 min at room temperature in the dark. For analysis of stained cells, a BD FACSCalibur flow cytometer (BD Bio-sciences) was used. A minimum of 1 × 10^4 events were analysed per analysis."}, "[22]": {"tested_on": "BLM cells", "assay": "Cell cycle analysis by flow cytometry", "format": "cell-based, human", "conditions": "48 h, treated with IC50", "protocol": "as §3"}, "[23]": {"tested_on": "HCT116 cells", "assay": "Cell cycle analysis by flow cytometry", "format": "cell-based, human", "conditions": "72 h, treated with IC50", "protocol": "as §3"}, "[24]": {"tested_on": "Jurkat cells", "assay": "Cell cycle analysis by flow cytometry", "format": "cell-based, human", "conditions": "72 h, treated with IC50", "protocol": "as §3"}, "[25]": {"conditions": "read-out: IC50 and MIC100 (class symbol)"}}, "note": "Where two headings read alike, the source gives them in different places. Where a SMILES comes first, the peptide text is derived from it.", "data": [{"compound": "[Ag(GlyGly)]n(NO3)n [AgGlyGly]", "values": [{"measurement": "IC50", "setting": "[1]", "result": "> 100", "unit": "µM"}, {"measurement": "IC50", "setting": "[2]", "result": 70, "unit": "µM"}, {"measurement": "MIC80", "setting": "[2]", "result": 100, "unit": "µM"}, {"measurement": "IC50", "setting": "[3]", "result": 10, "unit": "µM"}, {"measurement": "MIC90", "setting": "[3]", "result": 20, "unit": "µM"}, {"measurement": "A570 (biofilm, crystal violet)", "setting": "[4]; complex concentration 5 µM", "result": 0.72}, {"measurement": "I: biofilm intensity", "setting": "[4]; complex concentration 5 µM", "result": "strong (strong biofilm formation A570 <0.301; 0.999>)"}, {"measurement": "A570 (biofilm, crystal violet)", "setting": "[4]; complex concentration 10 µM", "result": 0.39}, {"measurement": "I: biofilm intensity", "setting": "[4]; complex concentration 10 µM", "result": "strong (strong biofilm formation A570 <0.301; 0.999>)"}, {"measurement": "A570 (biofilm, crystal violet)", "setting": "[4]; complex concentration 25 µM", "result": 0.26}, {"measurement": "A570 (biofilm, crystal violet)", "setting": "[4]; complex concentration 50 µM", "result": 0.22}, {"measurement": "A570 (biofilm, crystal violet)", "setting": "[4]; complex concentration 100 µM", "result": 0.28}, {"measurement": "I: biofilm intensity", "setting": "[4]; complex concentration 100 µM", "result": "medium (medium biofilm formation A570 <0.2; 0.3>)"}, {"measurement": "Hypochromism", "setting": "[5]", "result": 20.1, "unit": "%"}, {"measurement": "Δλmax (red shift on addition of CT DNA)", "setting": "[5]", "result": 22, "unit": "nm"}, {"measurement": "IC50", "setting": "[6]; S. aureus L12 (MRSA)", "result": 15, "unit": "µM"}, {"measurement": "MIC90", "setting": "[6]; S. aureus L12 (MRSA)", "result": 38, "unit": "µM"}, {"measurement": "KSV (Stern-Volmer quenching constant)", "setting": "[7]", "result": "4.51 ± 0.05 × 10^4 M^−1"}, {"measurement": "IC50", "setting": "[8]", "result": 9, "unit": "µM"}, {"measurement": "IC50", "setting": "[9]", "result": 38.3, "unit": "µM"}, {"measurement": "IC50", "setting": "[10]", "result": 6, "unit": "µM"}, {"measurement": "MIC90", "setting": "[10]", "result": 10, "unit": "µM"}, {"measurement": "IC50", "setting": "[11]", "result": "> 100", "unit": "µM"}, {"measurement": "IC50", "setting": "[12]", "result": 47.1, "unit": "µM"}, {"measurement": "IC50", "setting": "[13]; read-out: IC50", "result": 71, "unit": "µM"}, {"measurement": "MIC100", "setting": "[13]; suffix s = fungistatic", "result": "> 100", "unit": "µM"}, {"measurement": "IC50", "setting": "[14]", "result": 13, "unit": "µM"}, {"measurement": "IC50", "setting": "[15]", "result": 21.2, "unit": "µM"}, {"measurement": "IC50", "setting": "[16]", "result": 34.5, "unit": "µM"}, {"measurement": "IC50", "setting": "[17]", "result": 14.8, "unit": "µM"}, {"measurement": "IC50", "setting": "[18]", "result": 30, "unit": "µM"}, {"measurement": "MIC80", "setting": "[18]", "result": 70, "unit": "µM"}, {"measurement": "IC50", "setting": "[19]; read-out: IC50", "result": 30, "unit": "µM"}, {"measurement": "MIC100", "setting": "[19]; suffix s = fungistatic", "result": 50, "unit": "µM"}, {"measurement": "IC50", "setting": "[20]", "result": 12, "unit": "µM"}, {"measurement": "MIC90", "setting": "[20]", "result": 22, "unit": "µM"}, {"measurement": "cells in G2/M", "setting": "[21]", "result": "14.9 ± 0.1", "unit": "%"}, {"measurement": "cells in S", "setting": "[21]", "result": "14.4 ± 0.1", "unit": "%"}, {"measurement": "cells in G2/M", "setting": "[22]", "result": "32.7 ± 2.4", "unit": "%"}, {"measurement": "cells in S", "setting": "[22]", "result": "15.3 ± 1.5", "unit": "%"}, {"measurement": "cells in G2/M", "setting": "[23]", "result": "7.1 ± 2.3", "unit": "%"}, {"measurement": "cells in S", "setting": "[23]", "result": "9.8 ± 0.1", "unit": "%"}, {"measurement": "cells in G2/M", "setting": "[24]", "result": "8.9 ± 0.1", "unit": "%"}, {"measurement": "cells in S", "setting": "[24]", "result": "11.1 ± 0.8", "unit": "%"}]}, {"compound": "NCC(=O)N[C@@H](CC(=O)O)C(=O)O", "note": "[H2GlyAsp, Glycyl-L-Aspartic acid, reference compound] (H-Gly-Asp-OH)", "values": [{"measurement": "IC50", "setting": "[1]", "result": "> 2000", "unit": "µM"}, {"measurement": "IC50 and MIC80 (class symbol)", "setting": "[2]", "result": "N (N- not active IC50 and MIC values > 2 mmol.l-1)"}, {"measurement": "IC50 and MIC90 (class symbol)", "setting": "[3]; free ligands", "result": "N (N- not active IC50 and MIC90 values > 2 mmol.l-1)"}, {"measurement": "IC50 and MIC90 (class symbol)", "setting": "[6]; S. aureus L12, free ligands", "result": "N (N- not active IC50 and MIC90 values > 2 mmol.l-1)"}, {"measurement": "IC50", "setting": "[8]", "result": "> 300", "unit": "µM"}, {"measurement": "IC50", "setting": "[9]", "result": "> 300", "unit": "µM"}, {"measurement": "IC50 and MIC90 (class symbol)", "setting": "[10]; free ligands", "result": "N (N- not active IC50 and MIC90 values > 2 mmol.l-1)"}, {"measurement": "IC50", "setting": "[11]", "result": "> 2000", "unit": "µM"}, {"measurement": "IC50", "setting": "[12]", "result": "> 300", "unit": "µM"}, {"measurement": "IC50", "setting": "[13]; [25]", "result": "> 2000", "unit": "µM"}, {"measurement": "IC50", "setting": "[14]", "result": "> 300", "unit": "µM"}, {"measurement": "IC50", "setting": "[15]", "result": "> 300", "unit": "µM"}, {"measurement": "IC50", "setting": "[16]", "result": "> 300", "unit": "µM"}, {"measurement": "IC50", "setting": "[17]", "result": "> 300", "unit": "µM"}, {"measurement": "IC50 and MIC80 (class symbol)", "setting": "[18]", "result": "N (N- not active IC50 and MIC values > 2 mmol.l-1)"}, {"measurement": "IC50", "setting": "[19]; [25]", "result": "> 2000", "unit": "µM"}, {"measurement": "IC50 and MIC90 (class symbol)", "setting": "[20]; free ligands", "result": "N (N- not active IC50 and MIC90 values > 2 mmol.l-1)"}]}]}
